Laboratory results as given in patent US10078087B2, “Assays and enhancers of the human delta ENaC sodium channel” (SENOMYX, INC., priority 2001, dated 2018).

Legend:
δβγ hENaC = biological target: T1, δβγ hENaC (Homo sapiens, UniProt P51168+P51170+P51172); assay: two-electrode voltage clamp of oocytes expressing delta beta gamma hENaC; assay type: cell-based
T1 construct: expressed in transfected cells; host or cells: Xenopus laevis oocytes injected with cRNA of each subunit
T1 sequence (P51172 1-638 isoform P51172-1): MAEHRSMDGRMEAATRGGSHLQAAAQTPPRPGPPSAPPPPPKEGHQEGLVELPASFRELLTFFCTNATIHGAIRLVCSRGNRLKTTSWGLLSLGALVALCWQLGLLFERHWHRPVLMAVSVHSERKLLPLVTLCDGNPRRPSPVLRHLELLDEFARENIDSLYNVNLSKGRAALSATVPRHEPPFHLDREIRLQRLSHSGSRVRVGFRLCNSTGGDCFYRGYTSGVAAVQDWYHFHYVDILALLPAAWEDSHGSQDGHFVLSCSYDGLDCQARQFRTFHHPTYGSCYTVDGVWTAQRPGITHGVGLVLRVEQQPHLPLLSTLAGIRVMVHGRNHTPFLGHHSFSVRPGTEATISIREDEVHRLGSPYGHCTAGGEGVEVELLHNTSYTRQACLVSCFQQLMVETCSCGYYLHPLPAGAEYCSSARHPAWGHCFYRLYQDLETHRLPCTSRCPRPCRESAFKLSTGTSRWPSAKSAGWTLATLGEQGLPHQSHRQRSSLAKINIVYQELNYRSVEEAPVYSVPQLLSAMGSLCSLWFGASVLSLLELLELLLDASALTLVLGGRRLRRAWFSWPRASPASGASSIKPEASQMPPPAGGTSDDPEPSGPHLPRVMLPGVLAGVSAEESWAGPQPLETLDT
T1 sequence (P51168 1-640): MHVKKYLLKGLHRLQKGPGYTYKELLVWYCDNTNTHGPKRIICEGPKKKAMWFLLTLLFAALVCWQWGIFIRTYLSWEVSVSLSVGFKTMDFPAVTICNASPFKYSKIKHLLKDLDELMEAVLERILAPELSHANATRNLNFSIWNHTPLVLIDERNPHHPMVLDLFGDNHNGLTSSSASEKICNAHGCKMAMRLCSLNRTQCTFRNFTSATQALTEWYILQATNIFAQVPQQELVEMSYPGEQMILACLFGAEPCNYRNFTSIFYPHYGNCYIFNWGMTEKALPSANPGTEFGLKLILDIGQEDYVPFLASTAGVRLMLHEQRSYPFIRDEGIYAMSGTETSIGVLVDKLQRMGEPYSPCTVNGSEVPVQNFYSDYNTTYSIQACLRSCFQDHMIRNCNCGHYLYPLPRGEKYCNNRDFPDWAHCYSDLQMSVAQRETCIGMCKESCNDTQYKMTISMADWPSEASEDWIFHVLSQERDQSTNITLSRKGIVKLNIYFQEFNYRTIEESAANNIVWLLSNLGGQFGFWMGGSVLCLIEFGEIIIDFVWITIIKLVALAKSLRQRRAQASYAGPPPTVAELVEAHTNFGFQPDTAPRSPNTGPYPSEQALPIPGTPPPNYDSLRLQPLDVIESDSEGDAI
T1 sequence (P51170 1-649): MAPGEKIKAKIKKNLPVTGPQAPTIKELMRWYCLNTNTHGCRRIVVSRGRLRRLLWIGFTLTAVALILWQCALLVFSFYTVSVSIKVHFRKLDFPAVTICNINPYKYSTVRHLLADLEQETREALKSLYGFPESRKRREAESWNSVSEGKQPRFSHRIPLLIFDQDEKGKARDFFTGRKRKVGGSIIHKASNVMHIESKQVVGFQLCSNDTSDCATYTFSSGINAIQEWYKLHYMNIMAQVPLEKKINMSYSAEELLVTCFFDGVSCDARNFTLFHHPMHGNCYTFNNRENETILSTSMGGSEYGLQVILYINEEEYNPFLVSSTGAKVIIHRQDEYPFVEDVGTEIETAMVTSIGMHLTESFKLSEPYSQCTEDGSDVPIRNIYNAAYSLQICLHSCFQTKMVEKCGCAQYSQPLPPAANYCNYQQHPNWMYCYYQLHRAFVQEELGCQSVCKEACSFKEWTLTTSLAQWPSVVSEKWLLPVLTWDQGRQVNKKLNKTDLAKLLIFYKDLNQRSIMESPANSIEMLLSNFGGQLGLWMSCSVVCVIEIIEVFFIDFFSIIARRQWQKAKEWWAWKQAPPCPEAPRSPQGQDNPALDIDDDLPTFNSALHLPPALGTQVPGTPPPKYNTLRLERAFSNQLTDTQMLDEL
From the text: α, β, and γ hENaC were cloned from kidney cDNA (Origene, Rockville, Md.) into pcDNA3 (Invitrogen, Carlsbad, Calif.) as described previously (Kellenberger, S and Schild, L. Physiol. Rev. 82:735-767(2002). δ hENaC was cloned from testis cDNA (BD Biosciences Clontech, Palo Alto, Calif.). α hENaC sequence was identical to published sequences from lung and kidney (Rossier et al., Annu. Rev. Physiol. 64:877-897 (2002); Alvarez de la Rosa et al., Annu. Rev. Physiol. 62:573-594 (200). (Genbank accession numbers X76180 and L29007). β hENaC sequence was identical to published sequence from lung Bigiani et al. Bigiani et al., Prog. Biophys. Mol. Biol. 83:193-225 (2003). (Genbank accession number X87159) with the exception of a glycine (nucleotide triplet GGC) to alanine (nucleotide triplet GCC) substitution in our clone at amino acid 314. […] (GenBank accession number BC059391). δ hENaC sequence was identical to published sequence from kidney (Shimkets et al., Cell 79: 407414 (1994)) with the exception of a tyrosine (nucleotide triplet TAC) to cysteine (nucleotide triplet TGC) substitution in our clone at amino acid 532.
ENaC cRNA was generated from linearized plasmids using the mMESSAGE mMACHINE kit with T7 RNA polymerase according to the manufacturer's instructions (Ambion, Austin, Tex.). cRNA quality was checked by denaturing agarose gel electrophoresis and spectrophometric absorbance readings at 260 and 280 nm to ensure that full-length, non-degraded cRNA was generated.
Female Xenopus laevis South African clawed frogs greater than or equal to 9 cm in length were obtained from NASCO (Fort Atkinson, Wis.). Frogs were anesthetized in 0.15% ethyl-3-aminobenzoate methanesulfonate (Sigma, St. Louis, Mo.) in distilled water and placed on ice. […]
Unless noted otherwise, ENaC function was measured using the two-electrode voltage clamp technique on an OpusXpress 6000A parallel oocyte voltage clamp system twenty-four hours post-microinjection (Axon Instruments, Union City, Calif.). […]

[1] = tested on: human salty taste perception; settings: humans; concentrations that specifically modulate ENaC function; cited from earlier work
[2] = tested on: human salty taste perception; assay: effect of amiloride on human salty taste perception; assay type: in vivo; settings: humans; levels ~300-fold above IC50 for αβγ ENaC (~10-fold over IC50 for δβγ ENaC) in oocytes
αβγ hENaC = biological target: T2, αβγ hENaC (Homo sapiens, UniProt P37088+P51168+P51170); assay: two-electrode voltage clamp of oocytes expressing alpha beta gamma hENaC; assay type: cell-based
T2 construct: expressed in transfected cells; host or cells: Xenopus laevis oocytes injected with cRNA of each subunit
T2 sequence (P37088 1-669): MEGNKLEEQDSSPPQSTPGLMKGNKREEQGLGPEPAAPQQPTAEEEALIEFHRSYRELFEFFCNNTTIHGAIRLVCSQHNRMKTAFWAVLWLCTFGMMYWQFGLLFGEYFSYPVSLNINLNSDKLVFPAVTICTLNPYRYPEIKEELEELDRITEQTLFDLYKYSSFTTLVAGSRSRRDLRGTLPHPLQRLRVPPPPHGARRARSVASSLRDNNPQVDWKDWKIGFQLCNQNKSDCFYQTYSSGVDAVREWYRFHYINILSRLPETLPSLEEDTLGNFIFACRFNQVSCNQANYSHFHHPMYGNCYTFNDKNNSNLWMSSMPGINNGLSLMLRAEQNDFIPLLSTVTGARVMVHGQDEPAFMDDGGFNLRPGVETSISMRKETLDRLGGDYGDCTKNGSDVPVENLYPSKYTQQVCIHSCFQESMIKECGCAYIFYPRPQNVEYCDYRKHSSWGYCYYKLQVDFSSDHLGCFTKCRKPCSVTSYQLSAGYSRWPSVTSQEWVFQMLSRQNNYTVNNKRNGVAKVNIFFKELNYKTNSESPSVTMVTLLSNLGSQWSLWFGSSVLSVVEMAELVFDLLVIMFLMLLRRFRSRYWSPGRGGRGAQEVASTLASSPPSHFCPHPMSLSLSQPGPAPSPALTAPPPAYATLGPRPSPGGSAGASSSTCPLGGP
T2 sequence (P51168 1-640): T1 sequence (P51168 1-640)
T2 sequence (P51170 1-649): T1 sequence (P51170 1-649)
From the text: α, β, and γ hENaC were cloned from kidney cDNA (Origene, Rockville, Md.) into pcDNA3 (Invitrogen, Carlsbad, Calif.) as described previously (Kellenberger, S and Schild, L. Physiol. Rev. 82:735-767(2002). δ hENaC was cloned from testis cDNA (BD Biosciences Clontech, Palo Alto, Calif.). α hENaC sequence was identical to published sequences from lung and kidney (Rossier et al., Annu. Rev. Physiol. 64:877-897 (2002); Alvarez de la Rosa et al., Annu. Rev. Physiol. 62:573-594 (200). (Genbank accession numbers X76180 and L29007). β hENaC sequence was identical to published sequence from lung Bigiani et al. Bigiani et al., Prog. […] (Genbank accession number X87159) with the exception of a glycine (nucleotide triplet GGC) to alanine (nucleotide triplet GCC) substitution in our clone at amino acid 314. […]
ENaC cRNA was generated from linearized plasmids using the mMESSAGE mMACHINE kit with T7 RNA polymerase according to the manufacturer's instructions (Ambion, Austin, Tex.). cRNA quality was checked by denaturing agarose gel electrophoresis and spectrophometric absorbance readings at 260 and 280 nm to ensure that full-length, non-degraded cRNA was generated. […]

[3] = compound concentration not given, N = 5-7 oocytes

| Compound | inhibition at 10 µM (δβγ hENaC) [%] | IC50 (δβγ hENaC; Xenopus oocytes, n=10, mean±SEM) [nM] | reduction of intensity of sodium chloride taste [1] | effect on perceived salt intensity [2] | inhibition at 1 µM (αβγ hENaC) [%] | % Enhance δβγ (δβγ hENaC; [3]) | % Enhance αβγ (αβγ hENaC; [3]) |
| --- | --- | --- | --- | --- | --- | --- | --- |
| N=C(N)NC(=O)c1nc(Cl)c(N)nc1N [amiloride] | > 90 | 2700 ± 300 | 15-20% | did not elicit a significant effect | > 90 |  |  |
| Choline C1 |  |  |  |  |  | 52 +/− 5% | 53 +/− 17% |
